Experimental data reported in US20030203819A1, “Synergistically acting herbicidal mixtures” (priority 1998, published 2003).
Read-outs that look alike come from different tables or passages of the source.

Assays:
Type in all cases: in vivo
Triticum aestivum = assay: Phytotoxicity to crop plant in the greenhouse (post-emergence treatment)
Text: (§1) The mixtures according to the invention were applied pre- or post-emergence (foliar treatment). The herbicidal compounds of component B were applied in the formulation in which they are present as commercially available product.
(§2) Some of the experiments were greenhouse experiments and some were field trials on mini plots (on a site with sandy loam (pH 6.2 to 7.0) or sandy clay (pH 5.0 to 6.7) as the soil).
(§3) The herbicidally active compounds of components A) and B) were applied in succession or jointly, in the latter case in some cases as a tank mix and in some cases as a readymix, in the form of emulsions, aqueous solutions or suspensions, the vehicle being water ([…]). In the case of the field trials, application was effected with the aid of a mobile plot sprayer.
(§4) The test period extended over 3 to 8 weeks, and the stands were also observed at later points in time.
(§5) Damage by the herbicidal compositions was evaluated with reference to a scale of 0% to 100% in comparison with untreated control plots. 0 means no damage and 100 means complete destruction of the plants.
(§6) In these examples, the value E at which only an additive effect of the individual active ingredients is to be expected was calculated by the method of S. R. Colby (Calculating synergistic and antagonistic responses of herbicide combinations, Weeds 15, 20 pp (1967).

Setaria faberi = assay: Herbicidal action in the field (post-emergence treatment)
Text: as §1, §2
(§7) The harmful plants differed with regard to size and developmental state; on average, they were 5 to 20 cm long, depending on the growth habit.
as §3, §4, §5, §6

Digitaria sanguinalis [1] = assay: as above; conditions: Ia.3 50 g/ha a.s.
Text: as §1, §2, §7, §3, §4, §5, §6

Galium aparine = assay: as above
Text: as §1, §2, §7, §3, §4, §5, §6

Abutilon theophrasti [2] = assay: as above
Text: as §1, §2, §7, §3, §4, §5, §6

Richardia brasiliensis = assay: as above; conditions: Ia.3 75 g/ha a.s.
Text: as §1, §2, §7, §3, §4, §5, §6

Ipomoea acuminata = assay: as above
Text: as §1, §2, §7, §3, §4, §5, §6

Sorghum bicolor = assay: as above; conditions: Ia.3 (title: Ia.33) 75 g/ha a.s. (Table 68)
Text: as §1, §2, §7, §3, §4, §5, §6

Stellaria media = assay: as above
Text: as §1, §2, §7, §3, §4, §5, §6

Anthemis mixta = assay: as above; conditions: Ia.3 75 g/ha a.s.
Text: as §1, §2, §7, §3, §4, §5, §6

Echinochloa crus-galli [3] = assay: as above; conditions: Ia.3 75 g/ha a.s.
Text: as §1, §2, §7, §3, §4, §5, §6

Cyperus species = assay: as above
Text: as §1, §2, §7, §3, §4, §5, §6

Setaria viridis [4] = assay: as above; conditions: Ia.3 100 g/ha a.s.
Text: as §1, §2, §7, §3, §4, §5, §6

Phalaris spec. = assay: as above; conditions: Ia.3 75 g/ha a.s.
Text: as §1, §2, §7, §3, §4, §5, §6

Lolium perenne = assay: as above
Text: as §1, §2, §7, §3, §4, §5, §6

Digitaria adscendens = assay: as above
Text: as §1, §2, §7, §3, §4, §5, §6

[5] = tested on: Ipomoea purpurea var. diversifolia; assay: as above
Text: as §1, §2, §7, §3, §4, §5, §6

Bidens pilosa = assay: as above
Text: as §1, §2, §7, §3, §4, §5, §6

Chenopodium album = assay: as above; conditions: Ia.3 50 g/ha a.s.
Text: as §1, §2, §7, §3, §4, §5, §6

Geranium carolinianum = assay: as above; conditions: Ia.3 150 g/ha a.s.
Text: as §1, §2, §7, §3, §4, §5, §6

Alopecurus myosuroides = assay: as above
Text: as §1, §2, §7, §3, §4, §5, §6

Brachiaria plantaginea = assay: as above; conditions: Ia.3 75 g/ha a.s.
Text: as §1, §2, §7, §3, §4, §5, §6

Amaranthus retroflexus [6] = assay: Herbicidal action in the greenhouse (post-emergence treatment); conditions: Amaranthus retroflexus, post-emergence
Text: as §1, §2, §7, §3, §4, §5, §6

Abutilon theophrasti [7] = assay: as above; conditions: Ia.3 15.6 g/ha a.s.
Text: as §1, §2, §7, §3, §4, §5, §6

Setaria viridis [8] = assay: as above; conditions: Ia.3 15.6 g/ha a.s.
Text: as §1, §2, §7, §3, §4, §5, §6

Veronica ssp. = assay: as above
Text: as §1, §2, §7, §3, §4, §5, §6

Ipomoea ssp. = assay: as above
Text: as §1, §2, §7, §3, §4, §5, §6

Amaranthus retroflexus [9] = assay: Herbicidal action in the greenhouse (pre-emergence treatment); conditions: Ia.3 31.2 g/ha a.s.
Text: as §1, §2, §7, §3, §4, §5, §6

Digitaria sanguinalis [10] = assay: as above
Text: as §1, §2, §7, §3, §4, §5, §6

Echinochloa crus-galli [11] = assay: as above; conditions: Ia.3 62.5 g/ha a.s.
Text: as §1, §2, §7, §3, §4, §5, §6

Setaria viridis [12] = assay: as above; conditions: Ia.3 15.6 g/ha a.s.
Text: as §1, §2, §7, §3, §4, §5, §6

Cyperus iria = assay: as above; conditions: Ia.3 31.2 g/ha a.s.
Text: as §1, §2, §7, §3, §4, §5, §6

## COCC(C)N(C(=O)CCl)c1c(C)csc1C (stereo not drawn) [Dimethenamide]
Triticum aestivum; Table 83, Dimethenamide 500 g/ha a.s.
  Phytotoxicity (%): 0%

## Cn1ncc(C(=O)c2ccc(S(C)(=O)=O)c(C3=NOCC3)c2Cl)c1O [Ia.3, 4-[2-chloro-3-(4,5-dihydroisoxazol-3-yl)-4-methylsulfonylbenzoyl]-1-methyl-5-hydroxy-1H-pyrazole]
Setaria faberi; Ia.3 75 g/ha a.s. (Table 59)
  Damage: 99%
Setaria faberi; Ia.3 75 g/ha a.s. (Table 67)
  Damage: 95%
Digitaria sanguinalis [1]
  Damage: 57%
Galium aparine; Ia.3 75 g/ha a.s. (Table 9)
  Damage: 63%
Galium aparine; Ia.3 75 g/ha a.s. (Table 54)
  Damage: 60%
Galium aparine; Ia.3 75 g/ha a.s. (Table 64)
  Damage: 60%
Abutilon theophrasti [2]; Ia.3 50 g/ha a.s. (Table 5)
  Damage: 85%
Abutilon theophrasti [2]; Ia.3 75 g/ha a.s. (Table 66)
  Damage: 85%
Richardia brasiliensis
  Damage: 70%
Ipomoea acuminata; Ia.3 75 g/ha a.s. (Table 15)
  Damage: 25%
Ipomoea acuminata; Ia.3 75 g/ha a.s. (Table 29)
  Damage: 25%
Ipomoea acuminata; Ia.3 75 g/ha a.s. (Table 35)
  Damage: 25%
Ipomoea acuminata; Ia.3 75 g/ha a.s. (Table 76)
  Damage: 23%
Sorghum bicolor
  Damage: 78%
Stellaria media; Ia.3 75 g/ha a.s. (Table 14)
  Damage: 91%
Stellaria media; Ia.3 75 g/ha a.s. (Table 63)
  Damage: 91%
Anthemis mixta
  Damage: 68%
Echinochloa crus-galli [3]
  Damage: 98%
Cyperus species; Ia.3 75 g/ha a.s. (Table 70)
  Damage: 5%
Cyperus species; Ia.3 75 g/ha a.s. (Table 71)
  Damage: 0%
Setaria viridis [4]
  Damage: 75%
Phalaris spec.
  Damage: 20%
Lolium perenne; Ia.3 75 g/ha a.s.
  Damage: 10%
Digitaria adscendens; Ia.3 75 g/ha a.s. (Table 33)
  Damage: 90%
Digitaria adscendens; Ia.3 75 g/ha a.s. (Table 37)
  Damage: 90%
[5]; Ia.3 75 g/ha a.s. (Table 16)
  Damage: 93%
[5]; Ia.3 75 g/ha a.s. (Table 65)
  Damage: 94%
Bidens pilosa; Ia.3 75 g/ha a.s. (Table 13)
  Damage: 30%
Bidens pilosa; Ia.3 75 g/ha a.s. (Table 58)
  Damage: 25%
Bidens pilosa; Ia.3 75 g/ha a.s. (Table 69)
  Damage: 25%
Chenopodium album
  Damage: 92%
Geranium carolinianum
  Damage: 30%
Alopecurus myosuroides; Ia.3 7.5 g/ha a.s. (Table 7)
  Damage: 10%
Alopecurus myosuroides; Ia.3 75 g/ha a.s. (Table 8)
  Damage: 10%
Brachiaria plantaginea
  Damage: 96%
Brachiaria plantaginea; Table 80, Brachiaria plantaginea, field, post-emergence
  Damage (%): 95%
Amaranthus retroflexus [6]; read-out: Damage, Ia.3 15.6 g/ha a.s. (Table 10)
  pest or weed control at 15.6 g/ha: 80%
Amaranthus retroflexus [6]; read-out: Damage, Ia.3 15.6 g/ha a.s. (Table 25)
  pest or weed control at 15.6 g/ha: 55%
Abutilon theophrasti [7]
  Damage: 70%
Setaria viridis [8]
  Damage: 80%
Veronica ssp.; Ia.3 31.2 g/ha a.s.
  Damage: 80%
Ipomoea ssp.; Ia.3 31.2 g/ha a.s. (Table 27)
  Damage: 75%
Ipomoea ssp.; Ia.3 31.2 g/ha a.s. (Table 74)
  Damage: 75%
Amaranthus retroflexus [9]
  Damage: 40%
Digitaria sanguinalis [10]; Ia.3 62.5 g/ha a.s. (Table 40)
  Damage: 60%
Digitaria sanguinalis [10]; Ia.3 62.5 g/ha a.s. (Table 47)
  Damage: 60%
Echinochloa crus-galli [11]
  Damage: 60%
Setaria viridis [12]
  Damage: 20%
Cyperus iria
  Damage: 50%

## Cc1cc(-c2c(S(C)(=O)=O)ccc(C(=O)c3cnn(C)c3O)c2Cl)on1 [Ia.52, 4-[2-chloro-3-(3-methyl-isoxazol-5-yl)-4-methylsulfonylbenzoyl]-1-methyl-5-hydroxy-1H-pyrazole]
Amaranthus retroflexus [6]; read-out: Damage, Ia.52 62.5 g/ha a.s.
  pest or weed control at 62.5 g/ha: 75%
Veronica ssp.; Ia.52 15.6 g/ha a.s.
  Damage: 40%
Triticum aestivum; Table 83, Ia.52 62.5 g/ha a.s.
  Phytotoxicity (%): 0%

## C[n+]1ccc(-c2cc[n+](C)cc2)cc1 [paraquat-dichloride, reference compound]
Lolium perenne; paraquat-dichloride 400 g/ha a.s.
  Damage: 97%
